Source: patent publication US20170042152A1, “SAFENED HERBICIDAL COMPOSITIONS COMPRISING PYRIDINE CARBOXYLIC ACIDS” (priority 2015, published 2017)

Tests used:
spring wheat (TRZAS) = assay: Greenhouse postemergence safening trial, crop phytotoxicity; assay type: in vivo, Triticum aestivum; conditions: herbicide 0 g ae/ha, 20-22 d
Experimental: (§1) Seeds of the desired test plant species were planted in Sun Gro MetroMix® 306 planting mixture, which typically has a pH of 6.0 to 6.8 and an organic matter content of about 30 percent, in plastic pots with a surface area of 103.2 square centimeters (cm^2). When required to ensure good germination and healthy plants, a fungicide treatment and/or other chemical or physical treatment was applied. The plants were grown for 7-36 days (d) in a greenhouse with an approximate 14-hour (h) photoperiod which was maintained at about 18° C. during the day and 17° C. during the night. Nutrients and water were added on a regular basis and supplemental lighting was provided with overhead metal halide 1000-Watt lamps as necessary. The plants were employed for testing when they reached the second or third true leaf stage.
(§2) Weighed amounts of technical material were dissolved in a volume of 97:3 volume per volume (v/v) acetone/dimethyl sulfoxide (DMSO) to stock solutions. […] Compound requirements are based upon a 12 milliliter (mL) application volume at a rate of 187 liters per hectare (L/ha). Stock solutions of the safeners were prepared following the same procedure. Spray solutions of the safeners and experimental compound mixtures were prepared by adding the stock solutions to the appropriate amount of dilution solution to form a 12 mL spray solution in two-way combinations. Formulated compounds were applied to the plant material with an overhead Mandel track sprayer equipped with 8002E nozzles calibrated to deliver 187 L/ha over an application area of 0.503 square meters (m^2) at a spray height of 18 inches (43 centimeters (cm)) above average plant canopy. Control plants were sprayed in the same manner with the solvent blank.
(§3) The treated plants and control plants were placed in a greenhouse as described above and watered by sub-irrigation to prevent wash-off of the test compounds. After 20-22 d, the condition of the test plants as compared with that of the control plants was determined visually and scored on a scale of 0 to 100 percent where 0 corresponds to no injury and 100 corresponds to complete kill. Colby's equation was used to determine the herbicidal effects expected from the mixtures.

winter wheat (TRZAW) [1] = assay: as above; assay type: in vivo, Triticum aestivum; conditions: herbicide 0 g ae/ha, 20-22 d
Experimental: as §1, §2, §3

spring barley (HORVS) = assay: as above; assay type: in vivo, Hordeum vulgare; conditions: herbicide 0 g ae/ha, 20-22 d
Experimental: as §1, §2, §3

wild buckwheat (POLCO) = assay: Greenhouse postemergence trial, weed efficacy; assay type: in vivo, Polygonum convulvus; conditions: herbicide 0 g ae/ha, 20-22 d
Experimental: as §1, §2, §3

kochia (KCHSC) = assay: Greenhouse postemergence trial, weed efficacy; assay type: in vivo, Kochia scoparia; conditions: herbicide 0 g ae/ha, 20-22 d
Experimental: as §1, §2, §3

Russian thistle (SASKR) = assay: Greenhouse postemergence trial, weed efficacy; assay type: in vivo, Salsola iberica; conditions: herbicide 0 g ae/ha, 20-22 d
Experimental: as §1, §2, §3

wild pansy (VIOTR) = assay: Greenhouse postemergence trial, weed efficacy; assay type: in vivo, Viola tricolor; conditions: herbicide 0 g ae/ha, 20-22 d
Experimental: as §1, §2, §3

[2] = system: bird's-eye speedwell (VERPE); assay: Greenhouse postemergence trial, weed efficacy; assay type: in vivo, Veronica persica; conditions: herbicide 0 g ae/ha, 20-22 d
Experimental: as §1, §2, §3

wild mustard (SINAR) = assay: Greenhouse postemergence trial, weed efficacy; assay type: in vivo, Sinapis arvensis; conditions: herbicide 0 g ae/ha, 20-22 d
Experimental: as §1, §2, §3

wild chamomile (MATCH) = assay: Greenhouse postemergence trial, weed efficacy; assay type: in vivo, Matricaria chamomilla; conditions: herbicide 0 g ae/ha, 20-22 d
Experimental: as §1
as §2, with “Control plants were sprayed in the same manner with the solvent blank.” left out
as §3, with “Colby's equation was used to determine the herbicidal effects expected from the mixtures.” left out

shepherd's purse (CAPBP) = assay: Greenhouse postemergence trial, weed efficacy; assay type: in vivo, Capsella bura-pastoris; conditions: herbicide 0 g ae/ha, 20-22 d
Experimental: as §1, §2, §3

lambsquarters (CHEAL) [3] = assay: Greenhouse postemergence trial, weed efficacy; assay type: in vivo, Chenopodium album; conditions: herbicide 0 g ae/ha, 20-22 d
Experimental: as §1, §2, §3

pigweed (AMARE) = assay: Greenhouse postemergence trial, weed efficacy; assay type: in vivo, Amaranthis retroflexus; conditions: herbicide 0 g ae/ha, 20-22 d
Experimental: as §1
as §2, with “Control plants were sprayed in the same manner with the solvent blank.” left out
as §3, with “Colby's equation was used to determine the herbicidal effects expected from the mixtures.” left out

Canada thistle (CIRAR) [4] = assay: Greenhouse postemergence trial, weed efficacy; assay type: in vivo, Cirsium arvense; conditions: herbicide 0 g ae/ha, 20-22 d
Experimental: as §1
as §2, with “Control plants were sprayed in the same manner with the solvent blank.” left out
as §3, with “Colby's equation was used to determine the herbicidal effects expected from the mixtures.” left out

winter wheat (TRZAW) [5] = assay: Small plot field trial, crop safety; assay type: in vivo, Triticum aestivum; conditions: 20 g ae/ha herbicide (triisopropanol amine salt), no safener, post-emergence, mean
Experimental: (§4) The triisopropanol amine salts of herbicides of formulas I-G-A, I-G-B and I-G-C were tested with and without cloquintocet-mexyl in small plot field trials across various ecozones to evaluate the crop safety of these compounds on […] cereals including winter wheat and durum wheat.
(§5) All herbicide treatments were applied post-emergence in the spring to early summer. Herbicides were applied with bicycle or tractor-mounted sprayers using carbon dioxide (CO2) as a propellant. The sprayers delivered a uniform spray pattern that provided thorough coverage of the foliage using a 150 or 200 L/ha spray volume. At the time of herbicide applications, winter wheat was at the two leaf growth stage and durum wheat was at the 2-3 leaf growth stage.
(§6) Phytotoxicity to cereal crops was visually assessed as percent overall injury, compared to an untreated control plot. The overall injury assessments were based on visual ratings of growth inhibition, chlorosis, and delay in maturity. At late ratings (54-57 days after application), percent visual seed head deformity and reduction in seed formation were also assessed. Trials were designed as randomized complete blocks with four replicates. In general, three to four replicates were assessed for each treatment.

Canada thistle (CIRAR) [6] = assay: Small plot field trial, weed growth reduction; assay type: in vivo, Cirsuim arvensis; conditions: 20 g ae/ha herbicide (triisopropanol amine salt), no safener, post-emergence, mean
durum wheat (TRZDU) = assay: Small plot field trial, crop safety; assay type: in vivo, Triticum durum; conditions: 20 g ae/ha herbicide (triisopropanol amine salt), no safener, post-emergence, mean
Experimental: as §4, §5, §6

lambsquarters (CHEAL) [7] = assay: Small plot field trial, weed growth reduction; assay type: in vivo, Chenopodium album; conditions: 20 g ae/ha herbicide (triisopropanol amine salt), no safener, post-emergence, mean
[8] = cloquintocet-mexyl 4.375 g ai/ha
[9] = cloquintocet-mexyl 8.75 g ai/ha
[10] = cloquintocet-mexyl 17.5 g ai/ha

## CCCCCC(C)OC(=O)COc1ccc(Cl)c2cccnc12 (centres unmarked) [Cloquintocet-mexyl, cloquintocet-mexyl]
Spring wheat (TRZAS); [8]
  % visual injury TRZAS Ob: 0%
Spring wheat (TRZAS); [9]
  % visual injury TRZAS Ob: 0%
Spring wheat (TRZAS); [10]
  % visual injury TRZAS Ob: 0%
Spring wheat (TRZAS); cloquintocet-mexyl 35 g ai/ha
  % visual injury TRZAS Ob: 0%
Spring wheat (TRZAS); cloquintocet-mexyl 70 g ai/ha
  % visual injury TRZAS Ob: 0%
Winter wheat (TRZAW) [1]; cloquintocet-mexyl 20 g ai/ha
  % visual injury TRZAW Ob: 0%
Winter wheat (TRZAW) [1]; cloquintocet-mexyl 40 g ai/ha
  % visual injury TRZAW Ob: 0%
Winter wheat (TRZAW) [1]; cloquintocet-mexyl 80 g ai/ha
  % visual injury TRZAW Ob: 0%
Spring barley (HORVS); [8]
  % visual injury HORVS Ob: 0%
Spring barley (HORVS); [9]
  % visual injury HORVS Ob: 0%
Spring barley (HORVS); [10]
  % visual injury HORVS Ob: 0%
Spring barley (HORVS); cloquintocet-mexyl 20 g ai/ha
  % visual injury HORVS Ob: 0%
Spring barley (HORVS); cloquintocet-mexyl 35 g ai/ha
  % visual injury HORVS Ob: 0%
Spring barley (HORVS); cloquintocet-mexyl 40 g ai/ha
  % visual injury HORVS Ob: 0%
Spring barley (HORVS); cloquintocet-mexyl 70 g ai/ha
  % visual injury HORVS Ob: 0%
Spring barley (HORVS); cloquintocet-mexyl 80 g ai/ha
  % visual injury HORVS Ob: 0%
Wild buckwheat (POLCO); [8]
  % visual injury POLCO Ob: 0%
Wild buckwheat (POLCO); [9]
  % visual injury POLCO Ob: 0%
Wild buckwheat (POLCO); [10]
  % visual injury POLCO Ob: 0%
Wild buckwheat (POLCO); cloquintocet-mexyl 35 g ai/ha
  % visual injury POLCO Ob: 0%
Wild buckwheat (POLCO); cloquintocet-mexyl 70 g ai/ha
  % visual injury POLCO Ob: 0%
Kochia (KCHSC); [8]
  % visual injury KCHSC Ob: 0%
Kochia (KCHSC); [9]
  % visual injury KCHSC Ob: 0%
Kochia (KCHSC); [10]
  % visual injury KCHSC Ob: 0%
Kochia (KCHSC); cloquintocet-mexyl 20 g ai/ha
  % visual injury KCHSC Ob: 0%
Kochia (KCHSC); cloquintocet-mexyl 35 g ai/ha
  % visual injury KCHSC Ob: 0%
Kochia (KCHSC); cloquintocet-mexyl 40 g ai/ha
  % visual injury KCHSC Ob: 0%
Kochia (KCHSC); cloquintocet-mexyl 70 g ai/ha
  % visual injury KCHSC Ob: 0%
Kochia (KCHSC); cloquintocet-mexyl 80 g ai/ha
  % visual injury KCHSC Ob: 0%
Russian thistle (SASKR); [8]
  % visual injury SASKR Ob: 0%
Russian thistle (SASKR); [9]
  % visual injury SASKR Ob: 0%
Russian thistle (SASKR); [10]
  % visual injury SASKR Ob: 0%
Russian thistle (SASKR); cloquintocet-mexyl 35 g ai/ha
  % visual injury SASKR Ob: 0%
Russian thistle (SASKR); cloquintocet-mexyl 70 g ai/ha
  % visual injury SASKR Ob: 0%
Wild pansy (VIOTR); [8]
  % visual injury VIOTR Ob: 0%
Wild pansy (VIOTR); [9]
  % visual injury VIOTR Ob: 0%
Wild pansy (VIOTR); [10]
  % visual injury VIOTR Ob: 0%
Wild pansy (VIOTR); cloquintocet-mexyl 20 g ai/ha
  % visual injury VIOTR Ob: 0%
Wild pansy (VIOTR); cloquintocet-mexyl 35 g ai/ha
  % visual injury VIOTR Ob: 0%
Wild pansy (VIOTR); cloquintocet-mexyl 40 g ai/ha
  % visual injury VIOTR Ob: 0%
Wild pansy (VIOTR); cloquintocet-mexyl 70 g ai/ha
  % visual injury VIOTR Ob: 0%
Wild pansy (VIOTR); cloquintocet-mexyl 80 g ai/ha
  % visual injury VIOTR Ob: 0%
[2]; [8]
  % visual injury VERPE Ob: 0%
[2]; [9]
  % visual injury VERPE Ob: 0%
[2]; [10]
  % visual injury VERPE Ob: 0%
[2]; cloquintocet-mexyl 35 g ai/ha
  % visual injury VERPE Ob: 0%
[2]; cloquintocet-mexyl 70 g ai/ha
  % visual injury VERPE Ob: 0%
Wild mustard (SINAR); cloquintocet-mexyl 20 g ai/ha
  % visual injury SINAR Ob: 0%
Wild mustard (SINAR); cloquintocet-mexyl 40 g ai/ha
  % visual injury SINAR Ob: 0%
Wild mustard (SINAR); cloquintocet-mexyl 80 g ai/ha
  % visual injury SINAR Ob: 0%
Wild chamomile (MATCH); cloquintocet-mexyl 20 g ai/ha
  % visual injury MATCH Ob: 0%
Wild chamomile (MATCH); cloquintocet-mexyl 40 g ai/ha
  % visual injury MATCH Ob: 0%
Wild chamomile (MATCH); cloquintocet-mexyl 80 g ai/ha
  % visual injury MATCH Ob: 0%
shepherd's purse (CAPBP); cloquintocet-mexyl 20 g ai/ha
  % visual injury CAPBP Ob: 0%
shepherd's purse (CAPBP); cloquintocet-mexyl 40 g ai/ha
  % visual injury CAPBP Ob: 0%
shepherd's purse (CAPBP); cloquintocet-mexyl 80 g ai/ha
  % visual injury CAPBP Ob: 0%
Lambsquarters (CHEAL) [3]; cloquintocet-mexyl 20 g ai/ha
  % visual injury CHEAL Ob: 0%
Lambsquarters (CHEAL) [3]; cloquintocet-mexyl 40 g ai/ha
  % visual injury CHEAL Ob: 0%
Lambsquarters (CHEAL) [3]; cloquintocet-mexyl 80 g ai/ha
  % visual injury CHEAL Ob: 0%
Pigweed (AMARE); cloquintocet-mexyl 20 g ai/ha
  % visual injury AMARE Ob: 0%
Pigweed (AMARE); cloquintocet-mexyl 40 g ai/ha
  % visual injury AMARE Ob: 0%
Pigweed (AMARE); cloquintocet-mexyl 80 g ai/ha
  % visual injury AMARE Ob: 0%
Canada thistle (CIRAR) [4]; cloquintocet-mexyl 20 g ai/ha
  % visual injury CIRAR Ob: 0%
Canada thistle (CIRAR) [4]; cloquintocet-mexyl 40 g ai/ha
  % visual injury CIRAR Ob: 0%
Canada thistle (CIRAR) [4]; cloquintocet-mexyl 80 g ai/ha
  % visual injury CIRAR Ob: 0%

## CC(F)c1nc(C(=O)O)c(Cl)c(N)c1F (centres unmarked) [formula I-G-B]
Winter wheat (TRZAW) [5]
  Instances of TRZAW grain reduction, % of untreated: 83.3 % of untreated
  TRZAW grain formation reduction, % of untreated: 68.3 % of untreated
Canada thistle (CIRAR) [6]
  Growth reduction of CIRAR, % of untreated: 85 % of untreated
Durum wheat (TRZDU)
  TRZDU Visual head deformation, % of untreated: 6.4 % of untreated
  TRZDU Visual injury, % of untreated: 6.4 % of untreated
Lambsquarters (CHEAL) [7]
  Growth reduction of CHEAL, % of untreated: 100 % of untreated
